Results reported in BindingDB's records for doi:10.1176/jnp.8.2.223 (1996).
pKi: −log10 of the molar value. Values joined by “and” are separate entries in the source; they are usually repeats but may differ in a detail not shown here. Identical values can stand only once. Counter-ions that a name gives are not always drawn.

Columns and labels:
[1] = molecular target: D(2) dopamine receptor (Bos taurus, UniProt P20288)
[2] = molecular target: D(1A) dopamine receptor (Bos taurus, UniProt Q95136)
Chain of D(1A) dopamine receptor (Q95136 whole entry): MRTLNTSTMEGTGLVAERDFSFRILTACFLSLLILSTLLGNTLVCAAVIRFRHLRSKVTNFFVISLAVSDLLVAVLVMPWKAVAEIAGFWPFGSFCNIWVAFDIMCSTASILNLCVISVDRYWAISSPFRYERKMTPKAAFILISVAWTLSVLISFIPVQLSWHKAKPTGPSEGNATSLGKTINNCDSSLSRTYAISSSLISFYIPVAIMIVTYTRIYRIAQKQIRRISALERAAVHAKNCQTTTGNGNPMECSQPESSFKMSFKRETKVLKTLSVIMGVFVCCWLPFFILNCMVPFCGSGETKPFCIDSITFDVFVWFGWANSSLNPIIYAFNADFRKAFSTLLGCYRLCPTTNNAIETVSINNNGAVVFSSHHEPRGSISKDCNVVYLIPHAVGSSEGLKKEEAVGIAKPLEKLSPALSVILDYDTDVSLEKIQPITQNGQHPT

Chain of D(2) dopamine receptor (P20288 whole entry): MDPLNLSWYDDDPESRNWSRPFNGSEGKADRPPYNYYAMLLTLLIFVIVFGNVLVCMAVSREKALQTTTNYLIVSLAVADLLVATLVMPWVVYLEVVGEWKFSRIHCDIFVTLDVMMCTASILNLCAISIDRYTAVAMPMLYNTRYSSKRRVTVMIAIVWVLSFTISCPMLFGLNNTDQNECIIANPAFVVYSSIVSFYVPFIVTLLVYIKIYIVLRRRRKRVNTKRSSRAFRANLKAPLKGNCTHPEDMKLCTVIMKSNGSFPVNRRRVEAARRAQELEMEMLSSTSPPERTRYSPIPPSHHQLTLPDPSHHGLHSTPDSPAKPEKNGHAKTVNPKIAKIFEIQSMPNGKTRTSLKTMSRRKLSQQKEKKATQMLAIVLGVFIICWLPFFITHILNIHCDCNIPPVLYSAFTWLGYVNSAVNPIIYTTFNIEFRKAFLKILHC

CN1CCN(CC/C=C2/c3ccccc3Sc3ccc(S(=O)(=O)N(C)C)cc32)CC1 [MLS000028463]
pKi [1]: 8.85

OCCN1CCN(CC/C=C2/c3ccccc3Sc3ccc(C(F)(F)F)cc32)CC1 [(cis) 2-{4-[3-(2-Trifluoromethyl-thioxanthen-9-ylidene)-propyl]-piperazin-1-yl}-ethanol(Flupentixol)]
pKi [1]: 8.96

OCCN1CCN(CCCN2c3ccccc3Sc3ccc(C(F)(F)F)cc32)CC1 [2-[4-[3-[2-(trifluoromethyl)phenothiazin-10-yl]propyl]piperazin-1-yl]ethanol;hydrochloride]
pKi [1]: 8.92 and 9.30

O=c1[nH]c2ccccc2n1C1CCN(CCCC(c2ccc(F)cc2)c2ccc(F)cc2)CC1 [1-(1-(4,4-bis(4-fluorophenyl)butyl)piperidin-4-yl)-1H-benzo[d]imidazol-2(3H)-one]
pKi [1]: 9.10 | pKi [2]: 5.39

O=C(CCCN1CCC(O)(c2ccc(Cl)cc2)CC1)c1ccc(F)cc1 [4-[4-(4-Chloro-phenyl)-4-hydroxy-piperidin-1-yl]-1-(4-fluoro-phenyl)-butan-1-one;propionate(HCl)]
pKi [2]: 6.19
